Results from patent publication US5519018A, “Substituted phenols and their use for the treatment of disorders caused by cell proliferation” (Behringwerke Aktiengesellschaft, priority 1992, dated 1996).
Like-named read-outs stand apart in the source and are kept apart here.

Tests used:
[1] = target: T1, EGF receptor tyrosine kinase (EGFRTK) (Homo sapiens, UniProt P00533); assay: biochemical
T1 construct: This cell line expresses a large number of EGF receptors which have tyrosine kinase activity on the cell surface; endogenous in cells; host or cells: A 431 (ATCC CRL 1555), membrane preparation
T1 sequence (P00533 25-1210): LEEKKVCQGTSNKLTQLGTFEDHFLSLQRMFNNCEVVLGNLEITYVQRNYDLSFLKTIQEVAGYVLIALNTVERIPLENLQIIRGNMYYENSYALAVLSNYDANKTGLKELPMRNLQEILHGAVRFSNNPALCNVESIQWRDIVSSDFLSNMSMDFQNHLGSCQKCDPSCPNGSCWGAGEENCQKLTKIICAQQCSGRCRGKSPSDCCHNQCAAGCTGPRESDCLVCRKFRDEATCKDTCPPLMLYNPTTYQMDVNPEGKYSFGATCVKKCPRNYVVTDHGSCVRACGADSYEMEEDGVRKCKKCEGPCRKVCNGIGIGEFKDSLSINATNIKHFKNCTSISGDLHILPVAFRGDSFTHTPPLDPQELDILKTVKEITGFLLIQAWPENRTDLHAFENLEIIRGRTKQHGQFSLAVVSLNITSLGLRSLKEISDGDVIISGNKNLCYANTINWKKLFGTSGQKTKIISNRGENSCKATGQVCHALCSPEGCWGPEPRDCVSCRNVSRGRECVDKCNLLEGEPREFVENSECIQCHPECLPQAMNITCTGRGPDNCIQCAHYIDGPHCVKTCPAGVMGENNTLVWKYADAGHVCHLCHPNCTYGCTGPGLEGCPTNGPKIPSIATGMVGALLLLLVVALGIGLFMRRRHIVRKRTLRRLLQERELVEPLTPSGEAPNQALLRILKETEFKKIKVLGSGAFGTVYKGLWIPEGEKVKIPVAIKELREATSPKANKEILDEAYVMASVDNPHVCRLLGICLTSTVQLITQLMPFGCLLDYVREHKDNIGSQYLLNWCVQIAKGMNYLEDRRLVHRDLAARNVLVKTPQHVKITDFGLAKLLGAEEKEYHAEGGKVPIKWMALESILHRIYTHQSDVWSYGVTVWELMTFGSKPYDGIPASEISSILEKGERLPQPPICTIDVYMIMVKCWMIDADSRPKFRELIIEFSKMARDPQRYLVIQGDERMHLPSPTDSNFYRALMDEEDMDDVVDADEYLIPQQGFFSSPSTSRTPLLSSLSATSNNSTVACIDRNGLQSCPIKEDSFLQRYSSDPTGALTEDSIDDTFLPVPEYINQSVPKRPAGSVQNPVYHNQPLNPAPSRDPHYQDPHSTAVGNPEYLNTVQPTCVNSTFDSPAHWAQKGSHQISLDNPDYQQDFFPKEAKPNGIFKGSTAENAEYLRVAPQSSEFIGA
Protocol: Test for EGF receptor tyrosine kinase inhibition
This cell line expresses a large number of EGF receptors which have tyrosine kinase activity on the cell surface. The cells were cultured almost to confluence, washed with PBS (phosphate buffered saline, pH 7.2), scraped off the culture flask and incubated at 4° C. for 1 h, subjected to 20 strokes in a Potter and centrifuged at 1000 g for 30'. The supernatant was centrifuged at 20000 g for a further 20 min and the pellet was taken up in 100 μl per 1×10^6 cells as the membrane preparation.
The tyrosine kinase activity of the EGF receptor (EGFRTK) was measured using poly(Glu, Ala, Tyr), 6:3:1, as the substrate. […] After 15'at 30° C., the substrate was precipitated with 10% TCA (trichloroacetic acid), filtered on a millititer filtration plate (Millipore Corporation, Massachusetts, USA), washed and dried. The incorporation of ^32 P was determined by means of a liquid scintillation counter.

[2] = test system: hela cells; assay: Test for inhibition of EGF-stimulated proliferation of tumor cells (hela, MTT); assay type: cell-based; conditions: 65 h; for inhibition at 5 µg/mL / inhibition at 25 µg/mL / inhibition at 0.2 µg/mL / inhibition at 1 µg/mL: Homo sapiens; for inhibition at 5 µg/mL: read-out: EGF stimulation % inhibition at 5 μg/ml; for inhibition at 25 µg/mL: read-out: EGF stimulation % inhibition at 25 μg/ml; for inhibition at 0.2 µg/mL: read-out: EGF stimulation % inhibition at 0.2 μg/ml; for inhibition at 1 µg/mL: read-out: EGF stimulation % inhibition at 1 μg/ml
Protocol: Test for inhibition of EGF- or bFGF-stimulated proliferation of tumor cells
2×10^3 hela cells per well were inoculated into a 96-well microtiter plate (in RPMI+1% FCS ). After 24 h, the medium was changed to RPMI+0.5% FCS and various concentrations of the test substance±EGF (0.1 nM)/bFGF (1 ng/ml) were added. Each group consisted of 4 wells; the control was only incubated±growth factor. After 65 h, 50 μof MTT (2.5 mg/ml in PBS) were added and the supernatant was removed after 7 h. The colored substance formed by the living cells was dissolved by addition of 100 μl of DMSO/well. The absorption was measured at 492 nm for each well with the aid of a 340 CC Multiscan photometer (Flow).
The mean value is formed from the 4 wells of a group and the absorption difference between the controls± growth factor (A) and between the groups with test substance± growth factor (B) is determined.

[3] = test system: cAMP-dependent protein kinase (PKA); assay: Test for 3',5'-cAMP-dependent protein kinase inhibition (PKA catalytic subunit, Kemptide substrate); assay type: biochemical; conditions: 40 μM ATP, 15' at 30° C.
Protocol: Test for 3',5'-cAMP-dependent protein kinase inhibition
The catalytic subunit of the cAMP-dependent protein kinase (PKA) (Sigma) was reconstituted as described by Sigma (Sigma Chemical Co., St. Louis, Mo. USA). The enzyme activity was measured using Kemptide (Sigma) (Leu-Arg-Arg-Ala-Ser-Leu-Gly) as a substrate. […] The reaction was initiated by addition of gamma-^32 P ATP (40 μM) After 15'at 30° C., an aliquot part was added to p81 ion exchanger (2×2 cm; Whatman Paper Ltd., Great Britain), immersed in 75 mM H3 PO4, washed, dried, and the incorporation of ^32 P was determined by means of a liquid scintillation counter.

[4] = 1 μg/ml, hela cells, EGF 0.1 nM, tox = toxic
[5] = 5 μg/ml, hela cells, EGF 0.1 nM, tox = toxic
[6] = A 431 membranes, 1000 nM EGF, 32 μM ATP, 15' at 30° C., max. 51 μg/ml, read-out: EGFRTK IC50 (converted)
[7] = 25 μg/ml, hela cells, EGF 0.1 nM, tox = toxic

Row | Compound | PKA % inhib. at 40 μg/ml [3] | IC50 [1, 6] | EGF stimulation % inhibition at 25 μg/ml [2, 7] | inhibition at 5 µg/mL [2, 5] | also measured
1 | O=C1C=CC(=O)C=C1.Oc1ccc(O)cc1 [Quinhydrone] | 0% | – | – | – | EGFRTK IC50 ([1]; A 431 membranes, 1000 nM EGF, 32 μM ATP, 15' at 30° C., max. 51 μg/ml): 0.126 µg/mL; EGF stimulation % inhibition at 1 μg/ml [2, 4]: 12%; EGF stimulation % inhibition at 5 μg/ml [2, 5]: 64%
2 | COC(=O)[C@H](Cc1c[nH]cn1)N=Cc1cc(O)ccc1O [Ex. 5, (S)-α-N-(2,5-Dihydroxybenzylidene)histidine methyl ester] | 0% | – | – | – | IC50 [1]: 43.7 µM; inhibition at 5 µg/mL ([2]; HeLa): 10%; inhibition at 25 µg/mL ([2]; HeLa): 44%
3 | Oc1ccc(O)c2ccccc12 [1,4-Naphthodiol] | 76% | – | – | – | IC50 [1]: 9.36 µM; EGF stimulation % inhibition at 1 μg/ml [2, 4]: tox; inhibition at 0.2 µg/mL ([2]; HeLa): 29%
4 | O=Cc1cc(O)ccc1O [Gentisaldehyde] | – | 145 to 217 µM | – | 16% | inhibition at 1 µg/mL [2, 4]: 0%
5 | Oc1ccc(O)c(Cl)c1 [2-Chlorohydroquinone] | 0% | – | tox | 46% | IC50 [1]: 13.1 µM
6 | Oc1ccc(O)c(O)c1 [1,2,4-Trihydroxybenzene] | 0% | 190 µM | – | – | EGF stimulation % inhibition at 5 μg/ml [2, 5]: tox; inhibition at 1 µg/mL ([2]; HeLa): 5%
7 | CN1CCN(N=Cc2cc(O)ccc2O)CC1 [Ex. 12, 2,5-Dihydroxy-N-(4'-methylpiperazino)benzaldimine] | 0% | 2.38 µM | tox | 21% | –
8 | Cc1cc(O)ccc1O [2-Methylhydroquinone] | 46% | 8.86 µM | – | 66% | inhibition at 1 µg/mL [2, 4]: 21%
9 | Cc1cc(O)c2ccccc2c1O [Menadiol] | 0% | 150 µM | – | – | –
10 | O=C(O)c1ccc(NCc2cc(O)ccc2O)cc1 [4-[N-(2',5'-Dihydroxybenzyl)amino]benzoic acid] | 61% | 17.8 µM | tox | 36% | –
11 | Oc1ccc(O)c(C=NN2CCOCC2)c1 [Ex. 11, 2,5-Dihydroxy-N-morpholinobenzaldimine] | 0% | 12.5 µM | tox | 17% | –
12 | O=C1C=CC(=O)c2ccccc21 [Naphthoquinone] | – | – | – | – | IC50 [1]: 1.26 µM; inhibition at 0.2 µg/mL ([2]; 0.2 μg/ml, hela cells, EGF 0.1 nM): 11%
13 | Oc1ccc(O)c(C=NN2CCCCC2)c1 [Ex. 10, 2,5-Dihydroxy-N-piperidinobenzaldimine] | 0% | 47.7 µM | – | – | –
14 | O=C1C=CC(=O)C(Cl)=C1 [2-Chlorobenzoquinone] | 29% | – | tox | – | IC50 [1]: 9.68 µM; inhibition at 5 µg/mL ([2]; HeLa): 29%
15 | CC(C)(C)c1cc(O)ccc1O [2-tert-Butylhydroquinone] | 22% | 5.72 µM | – | – | inhibition at 1 µg/mL ([2]; HeLa): 21%; inhibition at 5 µg/mL ([2]; HeLa): 52%
16 | Oc1ccc(O)c(C=NN2CCCCCC2)c1 [N-Homopiperidino-2,5-dihydroxybenzaldimine] | 0% | 17.4 µM | – | – | EGF stimulation % inhibition at 5 μg/ml [2, 5]: tox
17 | Cc1c(O)ccc(O)c1C [2,3-Dimethylhydroquinone] | 71% | 4.64 µM | tox | 17% | –
18 | Oc1ccccc1O [Pyrocatechol] | 0% | – | – | – | IC50 [1]: 14.5 µM; inhibition at 0.2 µg/mL ([2]; HeLa): 16%; inhibition at 1 µg/mL ([2]; HeLa): 35%
19 | O=C1C=CC(=O)c2cc3ccccc3cc21 [1,4-Anthraquinone] | – | 2.79 µM | – | – | EGF stimulation % inhibition at 5 μg/ml [2, 5]: tox; inhibition at 1 µg/mL [2, 4]: 33%
20 | Oc1ccc(O)c(C=NC2CCCCC2)c1 [N-Cyclohexyl-2,5-dihydroxybenzaldimine] | 61% | 44.7 µM | – | 39% | inhibition at 25 µg/mL [2, 7]: 64%
21 | O=C1C=CC(=O)C=C1 [Benzoquinone] | 45% | – | – | 55% | IC50 [1]: 0.463 µM; inhibition at 1 µg/mL [2, 4]: 36%
22 | O=S(=O)([O-])c1cc(O)ccc1O.[K+] | 1% | 8.06 µM | – | – | inhibition at 5 µg/mL ([2]; HeLa): 6%; inhibition at 25 µg/mL ([2]; HeLa): 14%
23 | Oc1ccc(O)cc1 [Hydroquinone] | – | 0.908 µM | – | – | inhibition at 1 µg/mL ([2]; HeLa): 29%; inhibition at 5 µg/mL ([2]; HeLa): 43%

The next lines start with results.

Row | PKA % inhib. at 40 μg/ml [3] | IC50 [1, 6] | Compound | EGF stimulation % inhibition at 25 μg/ml [2, 7] | inhibition at 5 µg/mL [2, 5] | also measured
24 | 0% | 95.6 µM | CCCCCCN=Cc1cc(O)ccc1O [Ex. 6, N-Hexyl-2,5-dihydroxybenzaldimine] | tox | 18% | –
25 | 63% | 7.66 µM | CN(C)N=Cc1cc(O)ccc1O [Ex. 4, 2,5-Dihydroxy-N,N-dimethylbenzaldehyde hydrazone] | tox | 46% | –
26 | 25% | 5.53 µM | Oc1ccc(O)c(-c2ccccc2)c1 [2-Phenylhydroquinone] | – | 66% | inhibition at 1 µg/mL [2, 4]: 11%
27 | 0% | 74.2 µM | CCN=Cc1cc(O)ccc1O [Ex. 7, N-Ethyl-2,5-hydroxybenzaldimine] | tox | 28% | –
28 | 0% | 67.5 µM | O=C(O)c1ccc(N=Cc2cc(O)ccc2O)cc1 [Ex. 1, 4-[N-(2',5'-Dihydroxybenzylidene)amino]benzoic acid] | tox | 48% | –
29 | – | 55.1 µM | Oc1ccc(N=Cc2cc(O)ccc2O)cc1 [2,5-Dihydroxy-N-(4'-hydroxyphenyl)benzaldimine] | tox | 39% | –
30 | 0% | 77.9 µM | O=C(O)c1cccc(N=Cc2cc(O)ccc2O)c1 [3-[-(2',5'-Dihydroxybenzylidene)amino]benzoic acid] | tox | 44% | –
31 | 0% | 27.3 µM | O=C(O)c1cc(N=Cc2cc(O)ccc2O)ccc1O [5-[N-(2',5'-Dihydroxybenzylidene)amino]-2-hydroxybenzoic acid] | tox | 51% | –
32 | 0% | 46.3 µM | CC(C)N=Cc1cc(O)ccc1O [Ex. 8, 2,5-Dihydroxy-N-isopropylbenzaldimine] | tox | 28% | –
33 | 0% | 7.48 µM | Oc1ccc(O)c(C=NCc2ccccc2)c1 [Ex. 3, N-Benzyl-2,5-dihydroxybenzaldimine] | tox | 28% | –
34 | – | 89.3 µM | Oc1ccc(O)c(C=Nc2ccccc2)c1 [2,5-Dihydroxy-N-phenylbenzaldimine] | tox | 24% | –
35 | 0% | 13.1 µM | CN=Cc1cc(O)ccc1O [Ex. 2, 2,5-Dihydroxy-N-methylbenzaldimine] | tox | 21% | –
